This note sets out measurements from PubChem BioAssay AID274 (DTP/NCI, 2004).

Values joined by “and” are separate entries in the source; they are usually repeats but may differ in a detail not shown here. Identical values can stand only once. Inconclusive results and toxic doses are left out. Numbered stars: 1 amine (or outer) side, 2 acyl side, 3 side chain; on linkers, the order of the positions; unused ones are H or OH. Bridge positions count the residues as written; N and C are the ends. Square brackets hold non-standard residues; d marks the D form. Peptide text beside a SMILES is read from it. I, II: the chains in the order shown. Actinocin(9to1) = Cc1c2oc3c(C)ccc(C(=O)[*:1])c3nc-2c(C(=O)[*:2])c(N)c1=O; aThr = C[C@H](O)[C@H](N)C(=O)O; NMeV = CN[C@H](C(=O)O)C(C)C; Sar = CNCC(=O)O

The assay concerns BDF1 mice, Lewis lung carcinoma iv, survival T/C. Kind of assay: NCI In Vivo Anticancer Drug Screen. Data for tumor model Lewis Lung Carcinoma (intravenous) in B6D2F1 (BDF1) mice. The note with it: endpoint: median survival time, higher = longer survival. The method, then: The antitumor activity of compounds was measured in mice bearing transplantable tumors. Survival or tumor size were measured and the results are expressed as the measurement made in the treated group (T) divided by the measurement made in the vehicle treated control group (C). The tumor model used in this assay is Lewis Lung Carcinoma (intravenous) in B6D2F1 (BDF1) mice

[1] abbreviates: dose: 4.0 mg/kg/injection, schedule: Q01DX009 (ip), vehicle: saline with Tween-80.
[2] abbreviates: dose: 25.0 mg/kg/injection, schedule: Q01DX009 (ip), vehicle: saline.
Where [3] appears, read: dose: 50.0 mg/kg/injection, schedule: Q01DX009 (ip), vehicle: saline.
Setting [4] is: dose: 12.5 mg/kg/injection, schedule: Q01DX009 (ip), vehicle: saline.
[5] abbreviates: dose: 100.0 mg/kg/injection, schedule: Q01DX009 (ip), vehicle: saline.
Setting [6] is: dose: 200.0 mg/kg/injection, schedule: Q01DX009 (ip), vehicle: saline.

As to `O=C1c2ccccc2C(=O)c2c(NCCNCCO)ccc(NCCNCCO)c21`, the T/C by setting is: (dose: 1.0 mg/kg/injection, schedule: Q01DX005 (ip), vehicle: saline with Tween-80) 119 % of control; (dose: 1.0 mg/kg/injection, schedule: Q01DX009 (ip), vehicle: saline with Tween-80) 100 % of control; (dose: 2.0 mg/kg/injection, schedule: Q01DX005 (ip), vehicle: saline) 102 % of control; (dose: 2.0 mg/kg/injection, schedule: Q01DX009 (ip), vehicle: saline with Tween-80) 110 % of control; (dose: 4.0 mg/kg/injection, schedule: Q01DX005 (ip), vehicle: saline with Tween-80) 109 % of control; under setting [1], 102 % of control.

In the case of `N[C@@H](Cc1ccc(N(CCCl)CCCl)cc1)C(=O)O`, the T/C runs as follows: (dose: 0.25 mg/kg/injection, schedule: Q01DX009 (ip), vehicle: saline) 92 % of control; (dose: 0.5 mg/kg/injection, schedule: Q01DX009 (ip), vehicle: saline) 99 % of control and 102 % of control and 103 % of control; (dose: 1.0 mg/kg/injection, schedule: Q01DX009 (ip), vehicle: saline) 104 % of control and 105 % of control and 109 % of control; (dose: 1.95 mg/kg/injection, schedule: Q04DX003 (ip), vehicle: saline) 92 % of control; (dose: 2.0 mg/kg/injection, schedule: Q01DX009 (ip), vehicle: saline) 96 % of control and 110 % of control and 117 % of control; (dose: 3.24 mg/kg/injection, schedule: Q04DX003 (ip), vehicle: saline) 98 % of control. For the same compound, the T/C (dose: 3.4 mg/kg/injection, schedule: Q04DX003 (ip), vehicle: saline) was 100 % of control; the T/C (dose: 4.0 mg/kg/injection, schedule: Q01DX009 (ip), vehicle: saline) is 112 % of control and 114 % of control; the T/C (dose: 4.9 mg/kg/injection, schedule: Q04DX003 (ip), vehicle: saline) was 106 % of control; the T/C (dose: 5.4 mg/kg/injection, schedule: Q04DX003 (ip), vehicle: saline) is 100 % of control; the T/C (dose: 8.0 mg/kg/injection, schedule: Q01DX009 (ip), vehicle: saline) is 113 % of control; the T/C (dose: 9.0 mg/kg/injection, schedule: Q04DX003 (ip), vehicle: saline) is 154 % of control. The T/C (dose: 14.3 mg/kg/injection, schedule: Q04DX003 (ip), vehicle: saline) was 122 % of control.

`Cc1c2oc3c(C)ccc(C(=O)N[C@@H]4C(=O)N[C@H](C(C)C)C(=O)N5CCC[C@H]5C(=O)N(C)CC(=O)N(C)[C@@H](C(C)C)C(=O)O[C@H]4C)c3nc-2c(C(=O)N[C@@H]2C(=O)N[C@H](C(C)C)C(=O)N3CCC[C@H]3C(=O)N(C)CC(=O)N(C)[C@@H](C(C)C)C(=O)O[C@H]2C)c(N)c1=O` (I: [aThr][dV]P[Sar][NMeV] / II: [aThr][dV]P[Sar][NMeV]; ester I:1-I:C, II:1-II:C; linker I:N-II:N via Actinocin(9to1)): the T/C by setting is: (dose: 65.0 micrograms/kg/injection, schedule: Q04DX003 (ip), vehicle: saline + alcohol) 91 % of control; (dose: 108.0 micrograms/kg/injection, schedule: Q04DX003 (ip), vehicle: saline + alcohol) 92 % of control and 94 % of control; (dose: 180.0 micrograms/kg/injection, schedule: Q04DX003 (ip), vehicle: saline + alcohol) 97 % of control and 104 % of control; (dose: 259.0 micrograms/kg/injection, schedule: Q01DX001 (ip), vehicle: saline + alcohol) 94 % of control; (dose: 300.0 micrograms/kg/injection, schedule: Q04DX003 (ip), vehicle: saline + alcohol) 95 % of control and 106 % of control; (dose: 432.0 micrograms/kg/injection, schedule: Q01DX001 (ip), vehicle: saline + alcohol) 98 % of control.

In the case of `O=c1[nH]c(=O)n(C2CC(O)C(CO)O2)cc1F` (configuration not stated), the T/C runs as follows: (dose: 72.0 mg/kg/injection, schedule: Q04DX003 (ip), vehicle: saline) 108 % of control and 113 % of control; (dose: 72.0 mg/kg/injection, schedule: Q04DX006 (ip), vehicle: saline) 123 % of control; (dose: 103.0 mg/kg/injection, schedule: Q04DX006 (ip), vehicle: saline) 116 % of control; (dose: 210.0 mg/kg/injection, schedule: Q04DX006 (ip), vehicle: saline) 155 % of control; (dose: 300.0 mg/kg/injection, schedule: Q04DX006 (ip), vehicle: saline) 96 % of control; (dose: 429.0 mg/kg/injection, schedule: Q04DX003 (ip), vehicle: saline) 174 % of control.

Consider `C1CN1c1nc(N2CC2)nc(N2CC2)n1`, for which the T/C runs as follows: (dose: 0.06 mg/kg/injection, schedule: Q01DX009 (ip), vehicle: suspension in saline) 105 % of control; (dose: 0.12 mg/kg/injection, schedule: Q01DX009 (ip), vehicle: suspension in saline) 101 % of control; (dose: 0.25 mg/kg/injection, schedule: Q01DX009 (ip), vehicle: suspension in saline) 112 % of control.

Turning to `CCC(C)n1ncc2c(N(C)C)ncnc21` (configuration not stated), the T/C runs as follows: under setting [2], 102 % of control; under setting [3], 98 % of control.

For the compound `COC(=O)CC(N)C(=O)O` (configuration not stated), the T/C under setting [4] was 115 % of control, the T/C under setting [3] was 95 % of control, the T/C under setting [5] is 109 % of control and the T/C under setting [6] is 100 % of control.

For the compound `CCOC(C)C(/C=N/NC(N)=S)=NNC(N)=S` (configuration not stated), the T/C was 157 % of control (dose: 12.5 mg/kg/injection, schedule: Q01DX009 (ip), vehicle: saline with Tween-80); 95 % of control (dose: 25.0 mg/kg/injection, schedule: Q01DX009 (ip), vehicle: saline with Tween-80); 104 % of control (dose: 50.0 mg/kg/injection, schedule: Q01DX009 (ip), vehicle: saline with Tween-80); 114 % of control (dose: 200.0 mg/kg/injection, schedule: Q01DX009 (ip), vehicle: saline with Tween-80).

As for `CC(=O)NC(CCc1ccc(Cl)c(Cl)c1)c1cccc(O)c(=O)c1` (configuration not stated), the T/C by setting is: (dose: 6.25 mg/kg/injection, schedule: Q01DX009 (ip), vehicle: Klucel (hydroxypropylcellulose) (HPC)) 97 % of control; (dose: 12.5 mg/kg/injection, schedule: Q01DX009 (ip), vehicle: Klucel (hydroxypropylcellulose) (HPC)) 99 % of control; (dose: 25.0 mg/kg/injection, schedule: Q01DX009 (ip), vehicle: Klucel (hydroxypropylcellulose) (HPC)) 95 % of control; (dose: 50.0 mg/kg/injection, schedule: Q01DX009 (ip), vehicle: Klucel (hydroxypropylcellulose) (HPC)) 96 % of control.

Consider `O=c1n(CC2CO2)c(=O)n(CC2CO2)c(=O)n1CC1CO1` (configuration not stated), for which the T/C runs as follows: (dose: 6.25 mg/kg/injection, schedule: Q01DX009 (ip), vehicle: suspension in saline) 105 % of control and 100 % of control; (dose: 12.5 mg/kg/injection, schedule: Q01DX009 (ip), vehicle: suspension in saline) 107 % of control and 101 % of control; (dose: 25.0 mg/kg/injection, schedule: Q01DX009 (ip), vehicle: suspension in saline) 121 % of control and 101 % of control.

Take `C=C1C(=O)OCC1(C(=O)OCC)C(=O)OCC`: the T/C under setting [1] was 114 % of control and the T/C (dose: 8.0 mg/kg/injection, schedule: Q01DX009 (ip), vehicle: saline with Tween-80) was 120 % of control.

For `CC(C)=CC(=O)OC1C2C(C)=CC(=O)C(O)C2(C)C2C3(O)OCC24C(CC(=O)OC14)C(C)C3O` (configuration not stated), the T/C reads like this: (dose: 0.25 mg/kg/injection, schedule: Q01DX009 (ip), vehicle: distilled water + Tween-80) 92 % of control; (dose: 0.5 mg/kg/injection, schedule: Q01DX009 (ip), vehicle: distilled water + Tween-80) 90 % of control; (dose: 1.0 mg/kg/injection, schedule: Q01DX009 (ip), vehicle: distilled water + Tween-80) 106 % of control; (dose: 2.0 mg/kg/injection, schedule: Q01DX009 (ip), vehicle: distilled water + Tween-80) 103 % of control.

`O=P1(NCCCl)OCCC(OO)N1CCCl` (configuration not stated): the T/C was 150 % of control (dose: 69.0 mg/kg/injection, schedule: Q01DX001 (ip), vehicle: Klucel (hydroxypropylcellulose) (HPC)); 117 % of control (dose: 101.0 mg/kg/injection, schedule: Q01DX001 (ip), vehicle: Klucel (hydroxypropylcellulose) (HPC)); 160 % of control (dose: 230.0 mg/kg/injection, schedule: Q01DX001 (ip), vehicle: Klucel (hydroxypropylcellulose) (HPC)).

On to `O=C(/C=C(\Cl)C(=O)NO)NO`, for which the T/C is 124 % of control (dose: 6.25 mg/kg/injection, schedule: Q01DX009 (ip), vehicle: saline); 105 % of control under setting [4]; 105 % of control under setting [2]; 110 % of control under setting [3]; 115 % of control under setting [5]; 104 % of control under setting [6].

For the compound `C[Si](C)(C)O/C=C1/CCOC1=O`, the T/C reads like this: under setting [4], 116 % of control; under setting [2], 101 % of control; under setting [3], 107 % of control; under setting [5], 108 % of control; under setting [6], 93 % of control; (dose: 400.0 mg/kg/injection, schedule: Q01DX009 (ip), vehicle: saline) 99 % of control.
